Results as given in paper PMC12629158, “Cytotoxic Activity of Opopanax hispidus (Friv.) Griseb.: Characterization of a New Chalcone‐type Compound” (Chemistry & Biodiversity, 2025).
In brackets after ≈: the same amount, converted by molar mass. Entries after “also recorded” stand apart in the source; their conditions may differ. Like-named read-outs stand apart in the source and are kept apart here.

Columns and labels:
[1] = tested on: MCF‐7 cells; design: method as in earlier work; conditions: isolated from Sansevieria cylindrica; cited from earlier work
[2] = tested on: A549; experiment: MTT cytotoxicity assay, A549; format: cell-based, human; conditions: for antiproliferative effect of isolated compounds (in words): A549 lung cancer cells, tested concentrations 0.5–50 µM; for IC50: Homo sapiens, A549, 48 h, MTT, 48 h, read-out: IC50 ± SEM, A549
Experimental: (§1) Adenocarcinomic human alveolar basal epithelial cell line (A549), human cervical cancer cell line (HeLa), human breast cancer cell line (MCF‐7), human hepatocellular carcinoma cell line (HepG2), and human bronchial epithelial cell line (BEAS‐2B) were used for the cytotoxicity test panel of crude extract. […] Therefore, A549 was used in further activity‐guided fractionation and isolation studies. The cell lines were cultured in Dulbecco's Modified Eagle Medium (DMEM) supplemented with 10% fetal bovine serum (FBS), 1% L‐glutamine, and 1% penicillin‐streptomycin. Cells were maintained in an incubator at 37°C under 5% CO2.
(§2) MTT assay was used to determine the cytotoxic activity of the crude extract, subextracts, main fractions, and isolated compounds. MTT assay, called the “gold standard” of cell viability tests, is based on measuring metabolic activity. The cells reaching sufficient confluence were counted and plated in 96‐well plates (6 × 10^3 cells/well). After 24 h, cells were treated with five concentrations of the extracts (1–100 µg/mL), main fractions (1–100 µg/mL), or pure compounds (0.5–50 µM) in DMSO. Doxorubicin (10/3/1/0.3 µM) was used as a positive control. The plates were incubated with test materials for 48 h. After treatment, the supernatant was removed, and fresh medium and MTT solution (1 g/L in PBS) were added to each well. The cells were incubated for three h at 37°C. The resulting formazan crystals were dissolved in DMSO, and finally, the absorbance was detected at 570 nm using a spectrophotometer (SpectraMax i3x; Molecular Devices, San Jose, CA, USA). All data were collected from three independent experiments, and at least n = 6 data points were obtained. IC50 values were calculated as µg/mL for extracts or fractions and as µM for pure compounds.

[3] = tested on: Beas‐2B; experiment: MTT cytotoxicity assay, Beas‐2B healthy cell line; format: cell-based, human; conditions: for IC50: Homo sapiens, BEAS-2B, 48 h, MTT, read-out: IC50 ± SEM, Beas‐2B
Experimental: as §1, §2

[4] = tested on: A549; experiment: Selectivity index (IC50 non‐cancerous cells / IC50 cancerous cells); format: cell-based, human; conditions: IC50 Beas‐2B / IC50 A549
Experimental: The selectivity index (SI), which indicates the selectivity between cancer and normal cells, was calculated. The compounds with an SI greater than 1 are more likely to inhibit cancer cells than non‐cancerous cells. SI values were calculated by the formula of [(IC50 values of non‐cancerous cells)/(IC50 values of cancerous cells)].

[5] = isolated compounds 0.5–50 µM (Table 4)
[6] = doxorubicin positive control (Table 2 footnote)
[7] = doxorubicin positive control (Table 3 footnote)

| Structure (SMILES) | antiproliferative effect of isolated compounds (in words) [2] | IC50 [2, 5] [nM] | IC50 [3, 5] [nM] | other results |
| --- | --- | --- | --- | --- |
| COc1c(O)ccc(C(=O)C(CO)Cc2ccc3c(c2)OCO3)c1O (stereo not shown) [2′,4′‐dihydroxy‐3′‐methoxy‐3,4‐methylenedioxy‐8‐hydroxymethylene dihydrochalcone] |  |  |  | IC50, cytotoxic effect against MCF‐7 cells [1]: 34 µg/mL (≈ 98.2 µM) |
| O=C(O)c1cc2ccc(=O)oc2cc1O [Compound 1, umbelliferone 6‐carboxylic acid] | did not show an antiproliferative effect; also recorded: did not show antiproliferative activity | > 50000 | > 50000 |  |
| O=c1ccc2ccc(O)cc2o1 [Compound 2, umbelliferone] | did not show an antiproliferative effect; also recorded: did not show antiproliferative activity | > 50000 | > 50000 |  |
| COc1cc(O)c(C(=O)C[C@H](O)c2ccc(O)c(CC=C(C)C)c2)c(O)c1 [Compound 3, 2',6'‐dihydroxy‐4'‐methoxy‐3''‐(ɤ,ɤ‐dimethylallyl)‐4''‐hydroxy β‐hydroxydihydrochalcone] | significant activity | 13700 ± 800 | 12000 ± 1500 | cytotoxicity against normal cells compared with doxorubicin (in words) ([3]; normal cells (Beas‐2B)): lower cytotoxicity against normal cells than doxorubicin; SI (selectivity index) ([4]; Table 4): 0.87 |
| CC(C)(O)[C@H]1Cc2cc3ccc(=O)oc3cc2O1 [Compound 4, nodakenetin] | did not show an antiproliferative effect; also recorded: did not show antiproliferative activity | > 50000 | > 50000 |  |
| COc1cccc2c1C(=O)c1c(O)c3c(c(O)c1C2=O)C[C@@](O)(C(=O)CO)C[C@@H]3O[C@H]1C[C@H](N)[C@H](O)[C@H](C)O1 [Dox, doxorubicin, reference compound] |  | 590 ± 50 | 70 ± 17 | IC50 [2, 6]: 820 ± 130 nM; IC50 [2, 7]: 590 ± 50 nM; IC50 [3, 6]: 340 ± 20 nM; IC50 [3, 7]: 70 ± 17 nM; SI (selectivity index) ([4]; Table 3): 0.12 |
